This test relates to CT26 cells. Nature of the test: Cell death type by FITC-annexin V and PI staining. The class given is cell-based. The settings on record: 5 μM VPF, 2 hours, ultrasound 5 minutes. The protocol:
CT26 colorectal cells were cultured in an RPMI 1640 medium containing 10% fetal bovine serum (FBS) and 1% antibiotic-antimycotic. 5×10^6 of CT26 cells were treated with Ox@PEG-VPF and the controls for 2 hours based on 5 μM VPF, and then resuspended in 1 ml of the RPMI 1640 medium, followed by ultrasound treatment for 5 minutes.
After 100 μl of the CT26 cell suspension that had been treated with ultrasound was resuspended in 900 μl of the FITC-annexin V/PI mixed solution and maintained for 30 minutes, the resulting cells were washed twice with PBS and observed by confocal microscopy.
Specifically, the Ox@ PEG-VPF of the present invention reacted with a high concentration of ROS present in cancer cells to produce CO2 in the cells, and was treated with a FITC-labeled annexin compound (FITC-annexin V; excitation/emission wavelength—490/525 nm) and propidium iodide (PI; excitation/emission wavelength 535/617 nm) to confirm whether ICD occurs by the cavitation effect and cell membrane rupture caused by ultrasound.

For the substance verteporfin [VPF], the “cell death type (FITC-annexin V / PI staining)” value is “induced the apoptosis of cancer cells”.

(Values after patent publication US20220370609A1, “Polymer complex for anticancer immune therapy based on ultrasound comprising oxalate derivatives and Method of preparation thereof” (RESEARCH & BUSINESS FOUNDATION SUNGKYUNKWAN UNIVERSITY, priority 2021, published 2022).)
